The pIC50 is the IC50 on a negative log10 scale, so that one unit is a factor of ten. A lower pIC50 goes with a large IC50.

Each structure is given as a SMILES string. pIC50: −log10 of the molar value. Read-outs that look alike come from different tables or passages of the source.

Results on nine compounds are retold here after patent EP1213282A1, “Substituted imidazolium salts and their use for the inhibition of protein ageing” (ALTEON Inc., priority 1996, dated 1997).

The target of data set [1] is T1, AGE-BSA previously crosslinked to the collagen (Bos taurus, UniProt P02769).
T1 construct: purchased Calbiochem (BSA Type V); Collaborative Biomedical Products (Biocoat collagen plates)
T1 sequence (P02769 25-607): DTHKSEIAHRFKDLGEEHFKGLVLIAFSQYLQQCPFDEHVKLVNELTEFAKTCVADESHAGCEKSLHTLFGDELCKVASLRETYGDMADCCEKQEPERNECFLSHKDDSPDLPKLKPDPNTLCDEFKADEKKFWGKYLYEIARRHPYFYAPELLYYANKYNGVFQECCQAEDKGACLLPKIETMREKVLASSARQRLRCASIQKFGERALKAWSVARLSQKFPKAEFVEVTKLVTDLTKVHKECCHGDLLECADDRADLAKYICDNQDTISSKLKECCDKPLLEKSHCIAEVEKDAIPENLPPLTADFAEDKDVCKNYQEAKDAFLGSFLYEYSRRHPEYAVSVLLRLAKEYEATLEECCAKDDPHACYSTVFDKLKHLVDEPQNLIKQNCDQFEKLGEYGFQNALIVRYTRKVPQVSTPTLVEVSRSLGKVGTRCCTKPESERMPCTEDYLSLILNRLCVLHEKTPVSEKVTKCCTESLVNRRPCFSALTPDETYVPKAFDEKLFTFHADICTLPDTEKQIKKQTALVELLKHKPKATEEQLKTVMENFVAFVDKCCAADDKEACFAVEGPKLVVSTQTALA
T1 sequence (P02454 152-1207 partner limits assumed): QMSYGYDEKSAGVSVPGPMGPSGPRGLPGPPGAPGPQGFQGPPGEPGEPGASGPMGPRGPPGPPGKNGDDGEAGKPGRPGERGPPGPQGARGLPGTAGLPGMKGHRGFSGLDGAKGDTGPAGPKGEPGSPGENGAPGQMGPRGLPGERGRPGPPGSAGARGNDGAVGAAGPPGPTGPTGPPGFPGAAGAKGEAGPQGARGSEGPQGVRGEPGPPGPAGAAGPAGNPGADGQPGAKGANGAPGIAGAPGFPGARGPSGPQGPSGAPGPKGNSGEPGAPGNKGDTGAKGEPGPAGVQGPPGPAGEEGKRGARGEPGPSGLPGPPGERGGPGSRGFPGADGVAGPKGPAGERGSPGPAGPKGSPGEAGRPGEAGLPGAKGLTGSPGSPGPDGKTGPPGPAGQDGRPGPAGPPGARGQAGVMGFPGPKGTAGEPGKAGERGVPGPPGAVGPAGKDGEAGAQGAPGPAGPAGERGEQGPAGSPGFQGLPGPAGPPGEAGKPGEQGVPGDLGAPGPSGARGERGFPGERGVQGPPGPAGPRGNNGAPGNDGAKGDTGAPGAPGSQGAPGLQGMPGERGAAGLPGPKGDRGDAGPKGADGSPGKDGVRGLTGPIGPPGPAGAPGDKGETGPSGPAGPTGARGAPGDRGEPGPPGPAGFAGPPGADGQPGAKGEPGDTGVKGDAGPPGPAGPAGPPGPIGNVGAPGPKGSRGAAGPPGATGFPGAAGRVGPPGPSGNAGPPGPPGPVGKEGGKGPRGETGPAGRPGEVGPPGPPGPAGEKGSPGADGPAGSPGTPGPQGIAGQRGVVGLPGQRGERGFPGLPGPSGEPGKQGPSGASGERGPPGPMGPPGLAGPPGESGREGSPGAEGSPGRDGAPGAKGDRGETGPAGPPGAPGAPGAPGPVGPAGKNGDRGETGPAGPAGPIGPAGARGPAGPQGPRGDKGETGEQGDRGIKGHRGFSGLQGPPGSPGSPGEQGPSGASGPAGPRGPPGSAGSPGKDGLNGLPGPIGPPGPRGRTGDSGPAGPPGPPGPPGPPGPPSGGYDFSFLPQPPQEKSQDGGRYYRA
T1 sequence (P02466 86-1125 partner limits assumed): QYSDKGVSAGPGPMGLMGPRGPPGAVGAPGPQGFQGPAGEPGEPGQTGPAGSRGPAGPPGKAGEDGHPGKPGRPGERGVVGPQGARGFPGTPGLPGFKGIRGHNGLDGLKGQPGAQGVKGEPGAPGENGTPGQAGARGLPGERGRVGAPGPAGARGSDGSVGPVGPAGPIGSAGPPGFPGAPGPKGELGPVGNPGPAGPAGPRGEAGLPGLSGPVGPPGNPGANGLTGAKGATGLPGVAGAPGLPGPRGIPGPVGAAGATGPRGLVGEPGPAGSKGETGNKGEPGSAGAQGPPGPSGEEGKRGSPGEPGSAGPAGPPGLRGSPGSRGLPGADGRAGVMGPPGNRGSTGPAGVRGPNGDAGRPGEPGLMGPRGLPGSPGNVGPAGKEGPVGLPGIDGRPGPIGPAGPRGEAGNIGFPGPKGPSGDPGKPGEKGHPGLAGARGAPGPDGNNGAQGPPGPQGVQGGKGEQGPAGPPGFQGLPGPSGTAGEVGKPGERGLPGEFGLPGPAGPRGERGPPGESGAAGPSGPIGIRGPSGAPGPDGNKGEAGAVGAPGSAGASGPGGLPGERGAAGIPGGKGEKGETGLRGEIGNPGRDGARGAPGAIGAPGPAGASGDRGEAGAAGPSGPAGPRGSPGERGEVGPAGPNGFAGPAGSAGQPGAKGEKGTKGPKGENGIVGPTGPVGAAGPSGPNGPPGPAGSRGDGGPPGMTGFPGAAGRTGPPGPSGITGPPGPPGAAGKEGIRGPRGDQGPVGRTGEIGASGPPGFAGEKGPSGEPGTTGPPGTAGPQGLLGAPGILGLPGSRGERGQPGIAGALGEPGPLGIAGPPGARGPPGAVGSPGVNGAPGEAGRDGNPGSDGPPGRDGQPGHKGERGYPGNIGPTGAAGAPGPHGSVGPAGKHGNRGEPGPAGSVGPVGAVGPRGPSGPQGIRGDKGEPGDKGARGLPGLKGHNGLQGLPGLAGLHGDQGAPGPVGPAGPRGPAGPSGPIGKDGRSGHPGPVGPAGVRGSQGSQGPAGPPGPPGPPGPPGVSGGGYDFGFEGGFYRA
Put plainly: AGE cross-link breaking sandwich enzyme immunoassay (Example 6). The class given is biochemical. Particulars: 10 mM, 16 hours, 37°C. Here is the method:
In order to ascertain the ability of the compounds of the instant invention to "break" or reverse already formed advanced glycosylation endproducts, a novel sandwich enzyme immunoassay was developed which detects breaking of AGE (Advanced glycosylation endproduct) moieties from AGE-crosslinked protein. The assay utilizes collagen-coated 96 well microtiter plates that are obtained commercially. AGE-modified protein (AGE-BSA), prepared, for instance, as in Example 8, above, is incubated on the collagen-coated wells for four hours, is washed off the wells with PBS-Tween and solutions of the test compounds are added. Following an incubation period of 16 hours (37°C) cross-link-breaking is detected using an antibody raised against AGE-ribonuclease or with an antibody against BSA. Positive results in this assay indicate compounds that are capable of reducing the amount of AGE-BSA previously crosslinked to the collagen by breaking the crosslinks and allowing the liberated material to be flushed away in subsequent washing steps. Details of the assay are as follows:
• 1. AGE-BSA stock solutions were prepared as follows. Sodium phosphate buffer (0.4 M) was prepared by dissolving 6 grams of monobasic sodium phosphate in 100 ml of distilled water, 7 grams of dibasic sodium phosphate (0.4 M) in 100 ml of distilled water and adjusting the pH of the dibasic solution to 7.4 with the monobasic solution. Sodium azide (0.02 grams) was added per 100 ml volume to inhibit bacterial growth. The BSA solution was prepared as follows: 400 mg of Type V BSA (bovine serum albumin) was added for each ml of sodium phosphate buffer (above). A 400 mM glucose solution was prepared by dissolving 7.2 grams of dextrose in 100 ml of sodium phosphate buffer (above). The BSA and glucose solutions were mixed 1:1 and incubated at 37°C for 12 weeks. The pH of the incubation mixture was monitored weekly and adjusted to pH 7.4 if necessary. After 12 weeks, the AGE-BSA solution was dialyzed against PBS for 48 hours with four buffer changes, each at a 1:500 ratio of solution to dialysis buffer. Protein concentration was determined by the micro-Lowry method. The AGE-BSA stock solution was aliquoted and stored at -20°C. Dilute solutions of AGE-BSA were unstable when stored at -20°C. • 2. Working solutions for crosslinking and breaking studies were prepared as follows. Test compounds were dissolved in PBS and the pH was adjusted to pH 7.4 if necessary. AGE-BSA stock solution was diluted in PBS to measure maximum crosslinking. The concentration of AGE-BSA necessary to achieve the optimum sensitivity was determined by initial titration of each lot of AGE-BSA. • 3. Wash buffer ("PBS-Tween") was prepared as follows. PBS was prepared by dissolving the following salts in one liter of distilled water: NaCl, 8 grams; KCl, 0.2 gram, KH2PO4. 1.15 grams; NaN3, 0.2 gram. Tween-20 was added to a final concentration of 0.05% (vol/vol). • 4. Substrates for detection of secondary antibody binding were prepared by diluting the HRP substrate buffer 1:10 in distilled water and mixing with ABTS chromogen 1:50 just prior to use.
• 1. Biocoat plates were blocked with 300 µl of "Superbloc". Plates were blocked for one hour at room temperature and were washed with PBS-Tween three times with the Dynatech platewasher before addition of test reagents. • 2. Each experiment was set up in the following manner. The first three wells of the Biocoat plate were used for the reagent blank. Fifty microliters of solutions AGE-BSA were added to test wells in triplicate and only PBS in blank wells. The plate was incubated at 37°C for four hours and washed with PBS-Tween three times. Fifty microliters of PBS was added to the control wells and 50 µl of the test "AGE Cross-link breaker" compound was added to the test wells and blank. The plate was incubated overnight (approximately 16 hours) with the test "AGE Cross-link breaker" compound, followed by washing in PBS-Tween before addition of primary antibody (below). • 3. […]

The nature of data set [2]: Inhibition of ribose-induced cross-linking of N-acetyl glycyl-lysine methyl ester, fluorescence (Example 5). The format is biochemical. Particulars: 37°C, 16-24 hours, pH 7.4; fluorescence 350/400 nm. How it is done: Materials: • N-acetylglycyllysine methyl ester (DP in formula below) • Ribose (R in formula below) • Test compounds (C in formula below)
Reagents: • 0.5 M sodium phosphate buffer pH 7.4 • N-acetylglycyllysine methyl ester in 0.5M sodium phosphate buffer, pH 7.4 Ribose: 800 mM
Test compounds dissolved in the above buffer and the pH is adjusted to 7.4, if necessary
Reaction mixtures are prepared as follows:
and incubated at 37°C for 16-24 hours. At the end of the incubation period, the fluorescence is read using an excitation wavelength of 350 nm and emission wavelength of 400 nm. The inhibition of the cross-linking is calculated from the decrease in the fluorescence in the presence of the test compounds according to the formula: […] [formula]
The Inhibition by various test compounds (IC50) is as follows: […]

The target in data set [3] is T2, cross-linking of glycated bovine serum albumin (AGE-BSA) to the rat tail tendon collagen (Bos taurus, UniProt P02769).
T2 construct: The AGE-BSA was prepared by incubating BSA at a concentration of 200 mg per ml with 200 mM glucose
T2 sequence (P02769 25-607): as the sequence (P02769 25-607) above
Put plainly: Inhibition of cross-linking of glycated BSA (AGE-BSA) to collagen-coated plate, ELISA (Example 4). The format is biochemical. Particulars: for inhibition at 10000 µM: 4 h. How it is done: The following method was used to evaluate the ability of the compounds of the present invention to inhibit the cross-linking of glycated bovine serum albumin (AGE-BSA) to the rat tail tendon collagen coated 96-well plate.
The glycated BSA was then extensively dialyzed against phosphate buffer solution (PBS) for 48 hours with additional 5 times buffer exchanges. […] The blocking solution was removed from the wells by washing the plate twice with PAS-Tween 20 solution (0.05% Tween 20) using a NUNC-multiprobe or Dynatech ELISA-plate washer. […] The unbrowned BSA in PBS buffer with or without testing compound were added to the separate wells as the blanks. The uncross-linked AGE-BSA was then removed by washing the wells three times with PBS-Tween buffer. The cross-linked AGE-BSA to the tail tendon coated plate was then quantitated by the polyclonal antibody raised against AGE-RNase. After a one-hour incubation period, AGE antibody was removed by washing 4 times with PBS-Tween.
The bound AGE antibody was then detected with the addition of horseradish peroxidase-conjugated secondary antibody, e.g., goat anti-rabbit immunoglobulin and incubation for 30 minutes. […] The reaction was allowed for an additional 15 minutes and the absorbance was read at 410 nm in a Dynatech plate reader.

For data set [4], the system named is fixed protein (gelatin. i.e., collagen) surface. Put plainly: Surface browning experiment on gelatin/paper disks (Example 10). Conditions: 100 Mm glucose-6-phosphate, one week at 50°C; Peridex at final 0.04% chlorhexidine. How it is done:
To further study the ability of inhibitors of nonenzymatic browning to prevent the discoloration of protein on a surface, such as that which occurs on the tooth surface, the following surface browning experiment is performed. As a substitute for a pellicle-covered tooth surface. unexposed and developed photographic paper is used to provide a fixed protein (gelatin. i.e., collagen) surface on a paper backing. Five millimeter circles are punched and immersed for one week at 50°C in a solution of 100 Mm glucose-6-phosphate in a 0.5 M phosphate buffer, pH 7.4, containing 3 Mm sodium azide. Glucose-6-phosphate is a sugar capable of participating in nonenzymatic browning at a more rapid rate than glucose. In addition to the glucose-6-phosphate, chlorhexidine and/or a compound of Formula I are included. After incubation, the gelatin/paper disks are rinsed with water, observed for brown color, and photographed.

Setting [5] is: primary antibody anti-AGE-RNase, read-out: %breaking allowed, Pr AbαAGE.
Setting [6] is: primary antibody anti-BSA, read-out: %breaking allowed, PrAbαBSA.
Where [7] appears, read: pH 7.4, at 10 mM, 37°C, 4 hours, pH 7.4, read-out: %Inh.

As to `COc1ccc(C(=O)C[n+]2ccn(C)c2)cc1` [1-methyl-3-[2-(4'-methoxyphenyl)-2-oxoethyl]-imidazolium bromide], the figures for the inhibition at 10000 µM in data set [1] (setting [5]) and in data set [1] (setting [6]) were 38% and 27%, respectively.

In data set [2], `CCN(CC)c1ccc(C(=O)C[n+]2ccn(C)c2)cc1` [1-Methyl-3-[2-(4'-diethylaminophenyl)-2-oxo-ethyl]-imidazolium bromide] gave a negative-log IC50 (pIC50) of 3.28. Moreover, the inhibition at 10000 µM in data set [1] (setting [5]) was found to be 32%; in data set [1] (setting [6]), 28%.

Take `CCOC(=O)CCCCCn1cc[n+](CC(=O)c2cccc(OC)c2)c1` [1-(ethoxycarbonylpentyl)-3-[2-(3'-methoxyphenyl)-2-oxoethyl]-imidazolium bromide]: the inhibition at 10000 µM in data set [3] (setting [7]) worked out at 40%.

As for `Cn1cc[n+](CC(=O)c2ccc(F)cc2)c1` [1-methyl-3-[2-(4'-fluorophenyl)-2-oxoethyl]-imidazolium bromide], the inhibition at 10000 µM in data set [3] (setting [7]) worked out at 29%.

In the case of `COc1cccc(C(=O)C[n+]2ccn(C)c2)c1` [1-methyl-3-[2-(3'-methoxyphenyl)-2-oxoethyl]-imidazolium bromide], the inhibition at 10000 µM in data set [1] (setting [5]) came to 20%; in data set [1] (setting [6]) it was 24%.

`CCOC(=O)CCCCCn1cc[n+](CC(=O)c2ccc(OC)cc2)c1` [1-(ethoxycarbonylpentyl)-3-[2-(4'-methoxyphenyl)-2-oxoethyl]-imidazolium bromide]: the inhibition at 10000 µM in data set [3] (setting [7]) was found to be 23%. Moreover, the “%Inh.” value in data set [3] (at 10 mM, 37°C, 4 hours, pH 7.4, 240 min, 10000 µM) is 40%.

`CCOC(=O)CCCCCn1cc[n+](CC(=O)c2ccc(C)cc2)c1` [1-(ethoxycarbonylpentyl)-3-[2-(4'-methylphenyl)-2-oxoethyl]-imidazolium bromide]: the inhibition at 10000 µM in data set [3] (setting [7]) was 33%.

As for `Cn1cc[n+](CC(=O)c2ccc(Br)cc2)c1` [1-methyl-3-[2-(4'-bromophenyl)-2-oxoethyl]-imidazolium bromide], the inhibition at 10000 µM in data set [3] (pH 7.4, read-out: %Inh.) was found to be 23%.

Turning to `[H]/N=C(\N/C(=N/[H])NCCCCCCNC(=N)NC(=N)Nc1ccc(Cl)cc1)Nc1ccc(Cl)cc1` [chlorhexidine], in data set [4], the “brown color of gelatin/paper disks” value is reported as “significant browning”.
